Test results as given in US20180237713A1, “Ionic Liquid, Lubricant, and Magnetic Recording Medium” (priority 2015, published 2018).

Experiments:
[1] = in acetonitrile; cited from earlier work
[2] = Thermal stability measurement (TG/DTA weight reduction temperature); conditions: TG/DTA, air 200 mL/min, 10° C./min, 30° C. to 600° C.
[3] = Solubility test of ionic liquid in fluorine-based solvent VERTREL XF; conditions: for Solubility to fluorine-based solvent: VERTREL XF [CF3(CHF)2CF2CF3], 25° C., ultrasonic 5 minutes, left 1 day, visual; for Dissolved or not in fluorine-based solvent: VERTREL XF
Protocol: A solubility test was performed on the ionic liquid synthesized each of Examples and each of Comparative Examples using VERTREL XF [CF3(CHF)2CF2CF3] available from Du Pont-Mitsui Fluorochemicals Company, Ltd. as a fluorine-based solvent.
The ionic liquid was added to the predetermined mass of VERTREL XF.
Specifically, 0.5 parts by mass or 0.1 parts by mass of each ionic liquid was added to 100 parts by mass of VERTREL XF (25° C.).
Note that, a case where the mixture was visually observed to be transparent, the ionic liquid was judged as being dissolved. A case where the mixture was not transparent or insoluble matter was observed, the ionic liquid was judged as not being dissolved (insoluble).
The ionic liquid was dissolved when 0.5 parts by mass of the ionic liquid was added.
The ionic liquid was not dissolved when 0.5 parts by mass of the ionic liquid was added, but the ionic liquid was dissolved when 0.1 parts by mass of the ionic liquid was added.
The ionic liquid was not dissolved both when 0.5 parts by mass of the ionic liquid was added and when 0.1 parts by mass of the ionic liquid was added.

| Compound | pKa of acid that is a source of the conjugate base [1] | Weight reduction temperature 5% [2] | Weight reduction temperature 10% [2] | Weight reduction temperature 20% [2] | Solubility to fluorine-based solvent [3] | further results |
| --- | --- | --- | --- | --- | --- | --- |
| O=S(=O)(C(S(=O)(=O)C(F)(F)F)S(=O)(=O)C(F)(F)F)C(F)(F)F [tris(trifluoromethanesulfonyl)methide] | −3.7 |  |  |  |  |  |
| F[B-](F)(F)F.[H+] [tetrafluoroboric acid] | 1.8 |  |  |  |  |  |
| O=S1(=O)NS(=O)(=O)C(F)(F)C(F)(F)C1(F)F [hexafluorocyclopropane-1,3-bis(sulfonyl)imide] | −0.8 |  |  |  |  |  |
| C[n+]1ccn(CCC(F)(F)C(F)(F)C(F)(F)C(F)(F)C(F)(F)C(F)(F)C(F)(F)C(F)(F)F)c1.O=S(=O)([N-]S(=O)(=O)C(F)(F)C(F)(F)C(F)(F)C(F)(F)F)C(F)(F)C(F)(F)C(F)(F)C(F)(F)F [Ex. 9A, bis(nonafluorobutanesulfonyl)imide-1-1′H,1′H,2′H,2′H-heptadecafluorodecyl-3-methylimidazolium] |  | 350.3 °C | 365.5 °C | 381.3 °C | 0.5% by mass or greater | Solubility to fluorine-based solvent ([3]; listed as Example 9A): ≥ 0.5 % by mass |
| CCCCCCCCCCCCCCCCCCN1CCCN2CCCN=C12.O=S1(=O)NS(=O)(=O)C(F)(F)C(F)(F)C1(F)F [Comp. Ex. 4A, hexafluorocyclopropane-1,3-bis(sulfonyl)imide-7-octadecyl-1,5,7-triazabicyclo[4.4.0]-5-decenium, reference compound] |  | 288.4 °C | 376.2 °C | 412.1 °C | less than 0.1% by mass | Dissolved or not in fluorine-based solvent [3]: not dissolved |
| bis(nonafluorobutanesulfonyl)imide-6-octadecyl-1,8-diazabicyclo[5.4.0]-7-undecene [Ex. 1A] |  | 352.9 °C | 378.2 °C | 396.7 °C | 0.5% by mass or greater | Solubility to fluorine-based solvent ([3]; listed as Example 1A): ≥ 0.5 % by mass |
| CCCCCCCCCCCCCCCCCC[n+]1ccn(CCCC)c1.O=S(=O)([N-]S(=O)(=O)C(F)(F)C(F)(F)C(F)(F)C(F)(F)F)C(F)(F)C(F)(F)C(F)(F)C(F)(F)F [Comp. Ex. 8A, bis(nonafluorobutanesulfonyl)imide-1-butyl-3-n-octadecylimidazolium, reference compound] |  | 347.2 °C | 367.0 °C | 387.8 °C | less than 0.1% by mass |  |
| O=S(=O)(NS(=O)(=O)C(F)(F)C(F)(F)C(F)(F)C(F)(F)F)C(F)(F)C(F)(F)C(F)(F)C(F)(F)F [bis(nonafluorobutanesulfonyl)imide] | 0.0 |  |  |  |  |  |
| CCCCCCCCCCCCCCCCCCN1CCCC1.O=S(=O)(NS(=O)(=O)C(F)(F)C(F)(F)C(F)(F)C(F)(F)F)C(F)(F)C(F)(F)C(F)(F)C(F)(F)F [Ex. 5A, bis(nonafluorobutanesulfonyl)imide-N-octadecylpyrrolidinium] |  | 312.6 °C | 334.4 °C | 355.5 °C | 0.5% by mass or greater | Dissolved or not in fluorine-based solvent [3]: could be dissolved; Solubility to fluorine-based solvent ([3]; listed as Example 5A): ≥ 0.5 % by mass |
| O=S(=O)(O)C(F)(F)C(F)(F)C(F)(F)C(F)(F)C(F)(F)C(F)(F)C(F)(F)C(F)(F)F [heptadecafluorooctane sulfonic acid] | 0.7 |  |  |  |  |  |
